Experimental findings from patent US20220370463A1, “STABILIZED C-FMS INTRACELLULAR FRAGMENTS (FICD) PROMOTE OSTEOCLAST DIFFERENTIATION AND ARTHRITIC BONE EROSION” (New York Society for the Relief of the Ruptured and …, priority 2019, published 2022) are described below.

One assay deals with L-FICD generation. Briefly: Screening of 53 protease inhibitors from a protease library for L-FICD generation. Type of assay: cell-based. The text has this: To identify the protease(s) responsible for cleavage of H-FICD in an unbiased manner, we performed a screening of 53 protease inhibitors using a protease library. The best hits associated with the inhibition of L-FICD generation were MDL28170 and PD150606—two calpain inhibitors—along with MMP inhibitors and γ-secretase inhibitors. Calpain is the family of calcium-dependent cytosolic cysteine proteases expressed ubiquitously in mammals and many other organisms (Pfaff, M., Du, X. & Ginsberg, M. H. Calpain cleavage of integrin beta cytoplasmic domains. FEBS Lett 460, 17-22 (1999)), and calpain-dependent cleavages contribute to modulating various cellular functions such as apoptosis, proliferation and migration (Deshpande, R. V. et al. Calpain expression in lymphoid cells. Increased mRNA and protein levels after cell activation. J Biol Chem 270, 2497-2505 (1995). Svensson, L. et al. Calpain 2 controls turnover of LFA-1 adhesions on migrating T lymphocytes. PloS one 5, e15090, doi:10.1371/journal.pone.0015090 (2010).). […] Since calpain is activated by calcium, we examined if calcium signaling could compensate for M-CSF signaling to generate FICDs. In the absence of c-FMS signaling, calcium signaling was able to promote the cleavage of […] in the nucleus, and […] reversed the effect of calcium signaling on L-FICD processing (FIG.10C). […]

Assay [1] concerns K/BxN serum-induced arthritis. As to the kind of experiment: K/BxN serum transfer induced arthritis model. Format: in vivo, C57BL/6J mice. As for the experimental part: (a and b) BMDMs from WT and FICDtg^M mice was stimulated with RANKL (50 ng/ml) at the indicated time. (a) RT-qPCR of Nfatc1 mRNA normalized relative to Hprt mRNA. (b) Immunoblot with anti NFATc1, HA, or α-tubulin antibodies. (c and d) BMDMs from Csf1r^f/+ Mx1-Cre mice were transduced by lentiviruses encoding FMS^wt, or FMS^mut and then cultured with M-CSF and RANKL. (c) Immunoblot of whole lysate with anti-NFATc1 antibody. α-tubulin was used as a control. […] The intensity of NFATc1 in FMS^mut was set as 100%. (d) Expression mRNA level of NFATc1. (e) Immunoblot of whole cell lysates with phospho-eIF4E antibodies. HA-tagged FICD was detected by HA-antibody. α-tubulin was used as a control. […] (f and g) Human CD14+ cells were treated with CGP57380 at the indicated doses for one hour and cultured with RANKL for one day. […] (g) Nfatc1 mRNA expression was measured by qPCR relative to HPRT. A DMSO-treated RANKL condition was set as 100%. (h) Osteoclastogenesis assay. BMDMs from WT and FICDtg^M mice were treated with CPG57380 at the indicated doses and then cultured with RANKL for three days. […] Scale bar: 100 μm. (i) Cell viability assay. BMDMs WT and FICDtg^M mice was stimulated with CPG57380 at the indicated doses for one day. (j-n) K/BxN serum transfer induced arthritis model. 9-week old male C57BL/6J mice were received K/BxN serum on day 0 and day 2. Vehicle or CPG57380 (40 mg/kg) was administrated intraperitoneally (i.p) at day 2 until day 13 (n=5-6). (j) Schematic diagram showing experimental design. (k) Ankle thickness. (1) Arthritis score. (m) Representative images of TRAP stained histological sections from calcaneocuboid and tarsometatarsal joints. (n) Histomorphometry analysis of tarsal bones. N.OC/B.Pm; Osteoclast number/bone parameter. OC.S/BS; osteoclast surface/bone surface. ES/BS; Eroded surface/bone surface (n=5-6). All data are shown as mean±SEM. *, p<0.05 by One-way ANOVA with a post hoc Tukey test (a, f-i,k,l) or two-tailed, unpaired t-test (d,e,n). Data represent at least three experiments.
FIGS. 11A-11E show calpain regulates FICD generation. (A-E) K/BxN serum transfer induced arthritis model. 8-week old male C57BL/6J mice were received K/BxN serum on day 0 and day 2. Vehicle or MDL28170 (10 mg/kg) was administrated intraperitoneally (i.p) at day 2 until day 11 (n=10). (A) K/BxN Experimental design. (B) Arthritis score. (C) Ankle thickness. (D) Representative images of TRAP stained histological sections from calcaneocuboid and tarsometatarsal joints. (E) Histomorphometry analysis of tarsal bones. N.OC/B.Pm; Osteoclast number/bone parameter. […]
Histomorphometry experiment was performed with tarsal bone of vehicle or MDL28170 treated mice. […] The quantification of osteoclast was performed in paraffin embedded tissues that were stained for TRAP and Methyl green (Vector Laboratories). […]

[2] abbreviates: CGP57380 40 mg/kg i.p. day 2 until day 13.
The mark [3] stands for this setting: MDL28170 10 mg/kg i.p. day 2 until day 11.

Turning to MDL28170, in the assay on L-FICD generation, the “inhibition of L-FICD generation (hit in screening)” value is on record as “best hits”. In assay [1] (setting [2]), the “severity of arthritis: ankle joint thickness” value is “not affected” and the “severity of arthritis: clinical score” value was “not affected”. In assay [1] (setting [3]), the “severity of arthritis: ankle joint thickness” value was “attenuated” and the “severity of arthritis: clinical score” value is on record as “attenuated”.
